In patent publication US8592426B2, “Aryl-benzocycloalkyl amide derivatives” (Hoffmann—La Roche Inc., priority 2011, dated 2013):

How the values were obtained:
[1] = target: T1, Bradykinin-1 receptor (Homo sapiens (Human), UniProt P46663); test: Receptor binding assay (B1R Binding Assay), [3H]-Kallidin (Des Arg10, Leu9) displacement; conditions: membranes from CHO-K1 cells overexpressing Bradykinin-1 receptor; 6 nM radioligand
Procedure: Binding assays were done with membranes from CHO-K1 cells overexpressing Bradykinin-1 receptor.
To determine non-specific binding 10 μM Lys-(Des-Arg^9)-Bradykinin (Bachem) was added. Membranes were harvested through GF/B (glass fiber filter; PerkinElmer) plates, equilibrated with 0.5% polyethylenimine, air dried at 50° C. for 2 h. Radioactivity was determined by counting in a topcounter (NXT Packard).

[2] = target: T1, Bradykinin-1 receptor; test: Calcium mobilization assay (FLIPR, Fluo-4) in GeneBLAzer Bradykinin (B1)-NFAT-bla CHO-K1 cells; type: cell-based; conditions: antagonist activity; CHO-K1 cells stably overexpressing the human bradykinin 1 receptor; read-out: Ca mobilization Assay IC50
Procedure: Calcium Mobilization Assay
GeneBLAzer® Bradykinin (B1)-NFAT-bla CHO-K1 cells (from Invitrogen) stably overexpressing the human bradykinin 1 receptor were cultured in DMEM (high glucose) supplemented with 10% dialysed FBS, 1% NEAA (non essential amino acids) 1% penicillin/streptomycin, 1% G418 and 0.1 mg/ml zeocin.
For the assay cells were grown overnight in 384-well black clear flat bottom polystyrene plates (Costar) at 37° C. at 5% CO2. After washing with DMEM, 20 mM Hepes, 2.5 mM probenecid, 0.1% BSA (DMEM assay buffer) cells were loaded with 4 μM Fluo-4 in the same DMEM assay buffer for 2 hours at 30° C. Excess dye was removed and cells were washed with DMEM assay buffer. 384-well compound plates were prepared with DMEM assay buffer/0.5% DMSO with or without various concentrations of test compounds. Usually compounds were tested for agonist and antagonist activity.
Test compounds were added to the assay plate and agonist activity was monitored as fluorescence for 80 seconds with a FLIPR (488 nm excitation; 510-570 nm emission; Molecular Devices). After 20-30 min. of incubation at 30° C., 20 nM […] (R&D; Roche) was added and fluorescence was monitored again for 80 seconds. Increases in intracellular calcium are reported as maximum fluorescence after agonist exposure minus basal fluorescence before exposure.

T1 sequence (P46663 whole entry): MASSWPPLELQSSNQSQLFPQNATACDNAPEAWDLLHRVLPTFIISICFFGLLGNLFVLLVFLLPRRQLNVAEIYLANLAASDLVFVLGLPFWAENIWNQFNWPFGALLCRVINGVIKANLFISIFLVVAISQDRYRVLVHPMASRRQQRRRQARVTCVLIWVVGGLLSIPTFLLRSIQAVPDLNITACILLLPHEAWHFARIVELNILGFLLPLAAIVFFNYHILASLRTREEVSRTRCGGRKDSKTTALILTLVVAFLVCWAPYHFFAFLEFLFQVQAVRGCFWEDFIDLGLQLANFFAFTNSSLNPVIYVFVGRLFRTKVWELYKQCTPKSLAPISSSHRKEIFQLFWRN

Row | Ki [1] [nM] | IC50 [2] [nM] | SMILES
1 | 6.7 | 0.5 | Cn1nnc(-c2c(F)cc(Cl)cc2-c2ccc3c(c2)CCC3(C)NC(=O)C2(NC(=O)C(F)(F)F)CC2)n1 (racemic) [Example 18, 1-(2,2,2-Trifluoro-acetylamino)-cyclopropanecarboxylic acid{(rac)-5-[5-chloro-3-fluoro-2-(2-methyl-2H-tetrazol-5-yl)-phenyl]-1-methyl-indan-1-yl}-amide]
2 | 33.3 | 4.5 | Cc1nc(-c2c(F)cc(Cl)cc2-c2ccc3c(c2)OCC3NC(=O)C2(NC(=O)C(F)(F)F)CC2)no1 (racemic) [Example 19, 1-(2,2,2-Trifluoro-acetylamino)-cyclopropanecarboxylic acid{(rac)-6-[5-chloro-3-fluoro-2-(5-methyl-[1,2,4]oxadiazol-3-yl)-phenyl]-2,3-dihydro-benzofuran-3-yl}-amide]
3 | 24 | 3.6 | Cn1nnc(-c2c(F)cc(Cl)cc2-c2ccc3c(c2)OCC3NC(=O)C2(NC(=O)C(F)(F)F)CC2)n1 (racemic) [Example 20, 1-(2,2,2-Trifluoro-acetylamino)-cyclopropanecarboxylic acid{(rac)-6-[5-chloro-3-fluoro-2-(2-methyl-2H-tetrazol-5-yl)-phenyl]-2,3-dihydro-benzofuran-3-yl}-amide]
4 | 9.5 | 2.3 | Cc1nc(-c2c(F)cc(Cl)cc2-c2ccc3c(c2)SCC3NC(=O)C2(NC(=O)C(F)(F)F)CC2)no1 (racemic) [Example 21, 1-(2,2,2-Trifluoro-acetylamino)-cyclopropanecarboxylic acid{(rac)-6-[5-chloro-3-fluoro-2-(5-methyl-[1,2,4]oxadiazol-3-yl)-phenyl]-2,3-dihydro-benzo[b]thiophen-3-yl}-amide]
5 | 6.6 | 0.8 | Cn1nnc(-c2c(F)cc(Cl)cc2-c2ccc3c(c2)SCC3NC(=O)C2(NC(=O)C(F)(F)F)CC2)n1 (racemic) [Example 22, 1-(2,2,2-Trifluoro-acetylamino)-cyclopropanecarboxylic acid{(rac)-6-[5-chloro-3-fluoro-2-(2-methyl-2H-tetrazol-5-yl)-phenyl]-2,3-dihydro-benzo[b]thiophen-3-yl}-amide]
6 | 475 | 135 | Cc1nc(-c2c(F)cc(Cl)cc2-c2cc(F)c3c(c2)CCC3NC(=O)C2(NC(=O)OC(C)(C)C)CC2)no1 (racemic) [Example 31, (1-{(rac)-5-[5-Chloro-3-fluoro-2-(5-methyl-[1,2,4]oxadiazol-3-yl)-phenyl]-7-fluoro-indan-1-ylcarbamoyl}-cyclopropyl)-carbamic acid tert-butyl ester]
7 | 458 | 95.6 | Cc1nc(-c2c(F)cc(Cl)cc2-c2cc(F)c3c(c2)CCC3NC(=O)C2(N)CC2)no1 (racemic) [Example 32, 1-Amino-cyclopropanecarboxylic acid{(rac)-5-[5-chloro-3-fluoro-2-(5-methyl-[1,2,4]oxadiazol-3-yl)-phenyl]-7-fluoro-indan-1-yl}-amide]
8 | 18.9 | 0.5 | COc1ncc(C(=O)NC2(C(=O)NC3CCc4cc(-c5cc(Cl)cc(F)c5-c5noc(C)n5)cc(F)c43)CC2)cn1 (racemic) [Example 33, 2-Methoxy-pyrimidine-5-carboxylic acid(1-{(rac)-5-[5-chloro-3-fluoro-2-(5-methyl-[1,2,4]oxadiazol-3-yl)-phenyl]-7-fluoro-indan-1-ylcarbamoyl}-cyclopropyl)-amide]

The remaining lines, values behind:

Row | SMILES | Ki [1] [nM] | IC50 [2] [nM]
9 | COC(=O)c1ccccc1-c1ccc2c(c1)CCC2NC(=O)C1(NC(=O)C(F)(F)F)CC1 (racemic) [Example 1, (rac)-2-(1-{[1-(2,2,2-Trifluoro-acetylamino)-cyclopropanecarbonyl]-amino}-indan-5-yl)-benzoic acid methyl ester] | 2170 | 2250
10 | O=C(NC1(C(=O)NC2CCc3cc(-c4cc(Cl)cc(Cl)c4OCC(F)F)ccc32)CC1)C(F)(F)F (racemic) [Example 2, 1-(2,2,2-Trifluoro-acetylamino)-cyclopropanecarboxylic acid (rac)-{5-[3,5-dichloro-2-(2,2-difluoro-ethoxy)-phenyl]-indan-1-yl}-amide] | 146 | 76.8
11 | COC(=O)c1c(Cl)cccc1-c1ccc2c(c1)CCC2NC(=O)C1(NC(=O)C(F)(F)F)CC1 (racemic) [Example 3, (rac)-2-Chloro-6-(1-{[1-(2,2,2-trifluoro-acetylamino)-cyclopropanecarbonyl]-amino}-indan-5-yl)-benzoic acid methyl ester] | 123 | 47.4
12 | Cc1nc(-c2c(F)cc(Cl)cc2-c2ccc3c(c2)CCC3NC(=O)C2(NC(=O)C(F)(F)F)CC2)no1 (racemic) [Example 4, 1-(2,2,2-Trifluoro-acetylamino)-cyclopropanecarboxylic acid (rac)-{5-[5-chloro-3-fluoro-2-(5-methyl-[1,2,4]oxadiazol-3-yl)-phenyl]-indan-1-yl}-amide] | 20.2 | 2
13 | O=C(NC1(C(=O)NC2CCCc3cc(-c4cc(Cl)cc(Cl)c4OCC(F)F)ccc32)CC1)C(F)(F)F (racemic) [Example 9, 1-(2,2,2-Trifluoro-acetylamino)-cyclopropanecarboxylic acid{(rac)-6-[3,5-dichloro-2-(2,2-difluoro-ethoxy)-phenyl]-1,2,3,4-tetrahydro-naphthalen-1-yl}-amide] | 236 | 82.6
14 | COC(=O)c1c(Cl)cccc1-c1ccc2c(c1)CCCC2NC(=O)C1(NC(=O)C(F)(F)F)CC1 (racemic) [Example 10, (rac)-2-Chloro-6-(5-{[1-(2,2,2-trifluoro-acetylamino)-cyclopropanecarbonyl]-amino}-5,6,7,8-tetrahydro-naphthalen-2-yl)-benzoic acid methyl ester] | 522 | 118
15 | Cc1nc(-c2c(F)cc(Cl)cc2-c2ccc3c(c2)CCCC3NC(=O)C2(NC(=O)C(F)(F)F)CC2)no1 (racemic) [Example 11, 1-(2,2,2-Trifluoro-acetylamino)-cyclopropanecarboxylic acid{(rac)-6-[5-chloro-3-fluoro-2-(5-methyl-[1,2,4]oxadiazol-3-yl)-phenyl]-1,2,3,4-tetrahydro-naphthalen-1-yl}-amide] | 41.6 | 4
16 | Cc1nc(-c2c(F)cc(Cl)cc2-c2cnc3c(c2)CCC3NC(=O)C2(NC(=O)C(F)(F)F)CC2)no1 (racemic) [Example 12, 1-(2,2,2-Trifluoro-acetylamino)-cyclopropanecarboxylic acid{(rac)-3-[5-chloro-3-fluoro-2-(5-methyl-[1,2,4]oxadiazol-3-yl)-phenyl]-6,7-dihydro-5H-[1]pyrindin-7-yl}-amide] | 4.4 | 0.5
17 | Cn1nnc(-c2c(F)cc(Cl)cc2-c2cnc3c(c2)CCC3NC(=O)C2(NC(=O)C(F)(F)F)CC2)n1 (racemic) [Example 13, 1-(2,2,2-Trifluoro-acetylamino)-cyclopropanecarboxylic acid{(rac)-3-[5-chloro-3-fluoro-2-(2-methyl-2H-tetrazol-5-yl)-phenyl]-6,7-dihydro-5H-[1]pyrindin-7-yl}-amide] | 9.5 | 0.5
18 | Cc1nc(-c2c(F)cc(Cl)cc2-c2ccc3c(c2)OCCC3NC(=O)C2(NC(=O)C(F)(F)F)CC2)no1 (racemic) [Example 14, 1-(2,2,2-Trifluoro-acetylamino)-cyclopropanecarboxylic acid{(rac)-7-[5-chloro-3-fluoro-2-(5-methyl-[1,2,4]oxadiazol-3-yl)-phenyl]-chroman-4-yl}-amide] | 212 | 24.8
19 | Cn1nnc(-c2c(F)cc(Cl)cc2-c2ccc3c(c2)OCCC3NC(=O)C2(NC(=O)C(F)(F)F)CC2)n1 (racemic) [Example 15, 1-(2,2,2-Trifluoro-acetylamino)-cyclopropanecarboxylic acid{(rac)-7-[5-chloro-3-fluoro-2-(2-methyl-2H-tetrazol-5-yl)-phenyl]-chroman-4-yl}-amide] | 170 | 24.6
20 | Cc1nc(-c2c(F)cc(Cl)cc2-c2cc(F)c3c(c2)CCC3NC(=O)C2(NC(=O)C(F)(F)F)CC2)no1 (racemic) [Example 16, 1-(2,2,2-Trifluoro-acetylamino)-cyclopropanecarboxylic acid{(rac)-5-[5-chloro-3-fluoro-2-(5-methyl-[1,2,4]oxadiazol-3-yl)-phenyl]-7-fluoro-indan-1-yl}-amide] | 11 | 0.5
21 | Cc1nc(-c2c(F)cc(Cl)cc2-c2ccc3c(c2)CCC3(C)NC(=O)C2(NC(=O)C(F)(F)F)CC2)no1 (racemic) [Example 17, 1-(2,2,2-Trifluoro-acetylamino)-cyclopropanecarboxylic acid{(rac)-5-[5-chloro-3-fluoro-2-(5-methyl-[1,2,4]oxadiazol-3-yl)-phenyl]-1-methyl-indan-1-yl}-amide] | 5.9 | 0.6
